Source: US6875760B2 (Novo Nordisk A/S, priority 1999, dated 2005)

Target: T1, human glucagon receptor (Homo sapiens, UniProt P47871)
T1 construct: expressed in transfected cells; host or cells: BHK (baby hamster kidney) cells
Assay: Glucagon Binding Assay (III)
Details: BHK cell membranes, WGA SPA beads, 125I-glucagon; read-out: Glu Bd Assay (III) IC50
Procedure: BHK (baby hamster kidney cell line) cells were transfected with the human glucagon receptor and a membrane preparation of the cells was prepared.
All steps in the membrane preparation were kept on ice or performed at 4° C. BHK cells were harvested and centrifuged. […] The pellet was resuspended in homogenisation buffer, homogenised 2×10 sec (Polytron) and additional homogenisation buffer was added. […] (Polytron).
The glucagon binding assay was carried out in opti plates (Polystyrene Microplates, Packard). […] Finally 50 μL WGA beads containing 1 mg beads were transferred to the well. The assay was incubated for 4 hours on a shaker and then settled for 8-48 hours. The opti plates were counted in a Topcounter. Non-specific binding was determined with 500 nM of glucagon.

T1 sequence (P47871 26-477): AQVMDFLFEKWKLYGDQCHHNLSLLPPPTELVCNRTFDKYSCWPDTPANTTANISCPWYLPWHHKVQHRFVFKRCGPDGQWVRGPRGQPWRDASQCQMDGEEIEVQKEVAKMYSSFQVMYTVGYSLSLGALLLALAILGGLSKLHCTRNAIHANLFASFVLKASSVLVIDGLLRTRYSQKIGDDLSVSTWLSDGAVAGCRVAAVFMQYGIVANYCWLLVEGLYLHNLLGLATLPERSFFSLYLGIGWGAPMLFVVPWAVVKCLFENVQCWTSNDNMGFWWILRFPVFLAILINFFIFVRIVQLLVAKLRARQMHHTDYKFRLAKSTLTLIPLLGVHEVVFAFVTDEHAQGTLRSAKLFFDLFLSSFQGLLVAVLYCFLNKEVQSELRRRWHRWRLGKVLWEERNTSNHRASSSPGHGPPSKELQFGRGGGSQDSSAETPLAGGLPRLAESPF

**Q.** With `CC(C)(C)c1ccc(N(Cc2ccc(C(=O)Nc3nn[nH]n3)cc2)C(=O)/C=C/c2c(Cl)cccc2Cl)cc1` [Example 479, 4-({(4-tert-butylphenyl)-[3-(2,6-dichlorophenyl)acryloyl]amino}methyl)-N-(2H-tetrazol-5-yl)benzamide] as the compound, how does the IC50 read?
**A.** 819 nM

**Q.** Which IC50 does the source give for `CCN(CCC(=O)O)C(=O)c1ccc(CN(C(=O)Nc2ccc(OC(F)(F)F)cc2)C2CCC(C(C)(C)C)CC2)cc1` (stereo not shown) [Example 91, 3-({4-[1-(4-tert-Butylcyclohexyl)-3-(4-trifluoromethoxyphenyl)ureidomethyl]benzoyl}ethylamino)propionic acid] here?
**A.** 2800 nM

**Q.** `CC(C)(C)c1ccc(N(Cc2ccc(C(=O)NCCC(=O)O)cc2)C(=O)Oc2cc(Cl)cc(Cl)c2)cc1` [Example 409, 3-(4-{[(4-tert-Butylphenyl)-(3,5-dichlorophenoxycarbonyl)amino]methyl}benzoylamino)propionic acid] was tested. Which IC50 did it give?
**A.** 520 nM

**Q.** For `CCCCC(CC)CN(Cc1ccc(C(=O)NCCC(=O)O)cc1)C(=O)Nc1ccc(C(F)(F)F)cc1` (stereo not shown) [Example 36, 3-{4-[1-(2-Ethylhexyl)-3-(4-trifluoromethylphenyl)ureidomethyl]benzoylamino}propionic acid], which IC50 is on record?
**A.** 151 nM

**Q.** Which IC50 does the source give for `O=C(Nc1nn[nH]n1)c1ccc(CN(C(=O)Nc2cccc(S(=O)(=O)CC3CC3)c2)c2ccc(C3CCCCC3)cc2)cc1` [Example 470] here?
**A.** 116 nM

**Q.** For `CC(C)(C)C1CCC(N(Cc2ccc(C(=O)NCCC(=O)O)cc2)C(=O)Nc2ccc(SC(F)(F)F)cc2)CC1` (stereo not shown) [Example 58, 3-{4-[1-(4-tert-Butylcyclohexyl)-3-(4-trifluoromethylsulfanylphenyl)ureidomethyl]benzoylamino}propionic acid], which IC50 is on record?
**A.** 139 nM

**Q.** For `CC(C)(C)C1CCC(N(Cc2ccc(C(=O)NCCC(=O)O)cc2)C(=O)Nc2ccc([N+](=O)[O-])cc2)CC1` (stereo not shown) [Example 67, 3-{4-[1-(4-tert-Butylcyclohexyl)-3-(4-nitrophenyl)ureidomethyl]benzoylamino}propionic acid], which IC50 is on record?
**A.** 891 nM

**Q.** With `C[C@@H](NC(=O)N(Cc1ccc(C(=O)Nc2nn[nH]n2)cc1)c1ccc(C2=CCCCC2)cc1)c1ccc(Br)cc1` [Example 355, (R)-4-[3-[1-(4-Bromophenyl)ethyl]-1-(cyclohex-1-enylphenyl)ureidomethyl]-N-(2H-tetrazol-5-yl)benzamide] as the compound, how does the IC50 read?
**A.** 112 nM

**Q.** `CS(=O)(=O)c1ccc(OC(=O)N(Cc2ccc(C(=O)Nc3nn[nH]n3)cc2)c2ccc(C3CCCCC3)cc2)cc1` [Example 622] was tested. Which IC50 did it give?
**A.** 4600 nM

**Q.** With `CC(C)(C)C1CCC(N(Cc2ccc(C(=O)NCCC(=O)O)cc2)NC(=O)c2ccc(OC(F)(F)F)cc2)CC1` (stereo not shown) [Example 424, 3-{4-[N-(4-tert-Butylcyclohexyl)-N′-(4-trifluoromethoxybenzoyl)hydrazinomethyl]benzoylamino}propionic acid] as the compound, how does the IC50 read?
**A.** 61 nM

**Q.** How did the IC50 turn out when `CC(C)(C)C1CCC(N(Cc2ccc(C(=O)NCCC(=O)O)cc2)C(=O)Nc2ccccc2-c2ccccc2)CC1` (stereo not shown) [Example 28, 3-{4-[3-Biphenyl-2-yl-1-(4-tert-butylcyclohexyl)ureidomethyl]benzoylamino}propionic acid] was run?
**A.** 266 nM

**Q.** For `CSc1cccc(O)c1C(=O)N(Cc1ccc(C(=O)Nc2nn[nH]n2)cc1)c1ccc(C2CCCCC2)cc1` [Example 482, 4-{[(4-Cyclohexylphenyl)-(2-hydroxy-6-methylsulfanylbenzoyl)amino]methyl}-N-(2H-tetrazol-5-yl)benzamide], which IC50 is on record?
**A.** 302 nM

**Q.** `O=C(O)CCNC(=O)c1ccc(CN(C(=O)Nc2ccc(OC(F)(F)F)cc2)C2CCC(=C3CC3)CC2)cc1` (stereo not shown) [Example 248, 3-{4-[1-(4-Cyclopropylidenecyclohexyl)-3-(4-trifluoromethoxyphenyl)ureidomethyl]benzoylamino}propionic acid] was tested. Which IC50 did it give?
**A.** 571 nM

**Q.** With `CCCCNC(=O)c1cccc(NC(=O)N(Cc2ccc(C(=O)Nc3nn[nH]n3)cc2)c2ccc(C3CCCCC3)cc2)c1` [Example 465, N-Butyl-3-{3-(4-cyclohexylphenyl)-3-[4-(2H-tetrazol-5-ylcarbamoyl)benzyl]ureido}benzamide] as the compound, how does the IC50 read?
**A.** 606 nM

**Q.** How did the IC50 turn out when `CC(C)(C)c1ccc(N(Cc2ccc(C(=O)Nc3nn[nH]n3)cc2)C(=O)Nc2ccccc2)cc1` [Example 329] was run?
**A.** 278 nM

**Q.** For `CC(C)(C)[C@H]1CC[C@H](N(Cc2ccc(C(=O)NCCC(=O)NO)cc2)C(=O)Nc2ccc(OC(F)(F)F)cc2)CC1` [Example 376, 4-[1-(trans-4-tert-Butylcyclohexyl)-3-(4-trifluoromethoxyphenyl)ureidomethyl]-N-(2-hydroxycarbamoylethyl)benzamide], which IC50 is on record?
**A.** 391 nM

**Q.** How did the IC50 turn out when `CCC(C)c1ccc(N(Cc2ccc(C(=O)Nc3nn[nH]n3)cc2)C(=O)Nc2ccc(S(C)(=O)=O)cc2)cc1` (stereo not shown) [Example 448, 4-[1-(4-sec-Butylphenyl)-3-(4-methylsulfonylphenyl)ureidomethyl]-N-(2H-tetrazol-5-yl)benzamide] was run?
**A.** 1480 nM

**Q.** `CC(C)Cc1ccc(C(=O)N(Cc2ccc(C(=O)Nc3nn[nH]n3)cc2)C2CCC(C(C)(C)C)CC2)cc1` (stereo not shown) [Example 511, 4-{[(4-tert-Butylcyclohexyl)-(4-isobutylbenzoyl)amino]methyl}-N-(2H-tetrazol-5-yl)benzamide] was tested. Which IC50 did it give?
**A.** 58 nM

**Q.** `O=C(Nc1nn[nH]n1)c1ccc(CN(C(=O)Nc2nc3ccc([N+](=O)[O-])cc3s2)c2ccc(C3CCCCC3)cc2)cc1` [Example 342, 4-[1-(4-Cyclohexylphenyl)-3-(6-nitrobenzothiazol-2-yl)ureidomethyl]-N-(2H-tetrazol-5-yl)benzamide] was tested. Which IC50 did it give?
**A.** 376 nM

**Q.** How did the IC50 turn out when `CC(C)(C)C1CCC(N(Cc2ccc(C(=O)Nc3nn[nH]n3)cc2)C(=O)/C=C/c2c(Cl)cccc2Cl)CC1` (stereo not shown) [Example 552, 4-({(4-tert-Butylcyclohexyl)-[3-(2,6-dichlorophenyl)acryloyl]amino}methyl)-N-(2H-tetrazol-5-yl)benzamide] was run?
**A.** 133 nM

**Q.** For `CCN(c1ccccc1)S(=O)(=O)c1cccc(NC(=O)N(Cc2ccc(C(=O)NCCC(=O)O)cc2)c2ccc(C3CCCCC3)cc2)c1` [Example 265, 3-(4-{1-(4-Cyclohexylphenyl)-3-[3-(ethylphenylsulfamoyl)phenyl]ureidomethyl}benzoylamino)propionic acid], which IC50 is on record?
**A.** 30 nM

**Q.** With `O=C(O)CCNC(=O)c1ccc(CN(C(=O)Nc2cc(Br)cc(C(F)(F)F)c2)c2ccc(C3CCCCC3)cc2)cc1` [Example 394, 3-{4-[1-(4-Cyclohexylphenyl)-3-(3-bromo-5-trifluoromethylphenyl)ureidomethyl]benzoylamino}propionic acid] as the compound, how does the IC50 read?
**A.** 17 nM

**Q.** For `CC1CCCC(N(Cc2ccc(C(=O)NCCC(=O)O)cc2)C(=O)Nc2ccc(Oc3ccccc3)cc2)C1` (stereo not shown) [Example 44, 3-{4-[1-(3-Methylcyclohexyl)-3-(4-phenoxyphenyl)ureidomethyl]benzoylamino}propionic acid], which IC50 is on record?
**A.** 819 nM

**Q.** `CC(C)(C)[C@H]1CC[C@H](N(Cc2ccc(C(=O)Nc3nn[nH]n3)cc2)NC(=O)c2ccc(OC(F)(F)F)cc2)CC1` [Example 380, 4-[N-(trans-4-tert-Butylcyclohexyl)-N′-(4-trifluoromethoxybenzoyl)hydrazinomethyl]-N-(2H-tetrazol-5-yl)benzamide] was tested. Which IC50 did it give?
**A.** 71 nM

Same assay, conditions: value printed in the text of Example 315; read-out: Glu bd assay III

**Q.** How did the IC50 turn out when `CS(=O)(=O)c1cc(NC(=O)N(Cc2ccc(C(=O)Nc3nn[nH]n3)cc2)c2ccc(C3=CCCCC3)cc2)ccc1OC(F)(F)F` [Example 315, 4-[1-(4-Cyclohex-1-enylphenyl)-3-(3-methylsulfonyl-4-trifluoromethoxyphenyl)ureidomethyl]-N-(2H-tetrazol-5-yl)benzamide] was run?
**A.** 22 nM
